Reference: US5071749A, “Glycopetide antibiotic PA-45052-B” (Shionogi & Co., Ltd., priority 1987, dated 1991)
Converted amounts (≈) assume the structure as drawn.

Assays:
[1] = tested on: Staphylococcus aureus SR14; test: In vitro antibacterial activity, agar dilution method (MIC); format: cell-based; details: Staphylococcus aureus SR14, penicillin-resistant, 37° C., 18-20 hrs
[2] = tested on: Staphylococcus aureus SR3131; test: as above; format: cell-based; details: Staphylococcus aureus SR3131, methicillin-resistant, 37° C., 18-20 hrs
[3] = tested on: Staphylococcus aureus SR1626; test: as above; format: cell-based; details: Staphylococcus aureus SR1626, methicillin-resistant, 37° C., 18-20 hrs
[4] = tested on: Staphylococcus aureus SR3626; test: as above; format: cell-based; details: Staphylococcus aureus SR3626, methicillin-resistant, 37° C., 18-20 hrs
[5] = tested on: Staphylococcus aureus PDA 209P JC-1; test: as above; details: 37° C., 18-20 hrs
[6] = tested on: Staphylococcus aureus SMITH; test: as above; details: 37° C., 18-20 hrs
[7] = tested on: Staphylococcus aureus ATCC 25923; test: as above; details: 37° C., 18-20 hrs
[8] = tested on: Streptococcus epidermidis ATCC 14490; test: as above; details: 37° C., 18-20 hrs
[9] = tested on: Streptococcus pyogenes C-203; test: as above; details: horse serum 0.5%, 37° C., 18-20 hrs
[10] = tested on: Streptococcus pneumoniae Type I; test: as above; details: horse serum 0.5%, 37° C., 18-20 hrs
[11] = tested on: Streptococcus agalactiae SR 1247; test: as above; details: horse serum 0.5%, 37° C., 18-20 hrs
[12] = tested on: Streptococcus faecalis SR 1004; test: as above; details: horse serum 0.5%, 37° C., 18-20 hrs
broiler chicks = test: Growth-stimulation test on chicks; format: in vivo, broiler chicks (arbor acre); details: 20 ppm in feed for 14 days
Excerpt: The growth-stimulating activities of PA-45052-A, PA-45052-B and PA-45052-E on broiler chicks (arbor acre, 8 days old) were investigated by using the known antibiotic thiopeptin as a referential agent. Chicks were fed with a feed mush (crude protein (CP) concentration 18%, each agent's concentration 20 ppm, not supplemented with other antibiotics) for 14 days in the battery brooders. The method of this experiment was as follows. After chicks were fed by floor pen with a feed (CP concentration 23%) from 0 to 8 days, they were divided into 5 groups (24 chicks a group, 12 male and 12 female) in such a way that the average weights of the groups are equal. To each group was administered PA-45052-A (20 ppm), PA-45052-B (20 ppm), PA-45052-E (20 ppm), thiopeptin (20 ppm) or only a feed (CP 18%) for 14 days. Each group was fed in cages (435×600×410 mm, each cage has 6-7 chicks) at 26°±2° C. for 14 days (up to 22 days old). Effectiveness was estimated from the increase of weight and the feed efficiency.

Row | Molecule | MIC [1] [µg/mL] | MIC [2] [µg/mL] | MIC [3] [µg/mL] | MIC [4] [µg/mL] | MIC [5] [µg/mL] | MIC [6] [µg/mL] | MIC [7] [µg/mL] | MIC [8] [µg/mL] | MIC [9] [µg/mL] | MIC [10] [µg/mL] | MIC [11] [µg/mL] | MIC [12] [µg/mL] | FCR: feed efficiency (B/A) (broiler chicks; broiler chicks) | Increase of weight A (M = g) ± SD (average increase of weight) (broiler chicks; broiler chicks 8 to 22 days old, 24 chicks) [g] | FCR (%), index when control group is 100 (broiler chicks; broiler chicks, control = 100) [%] | Increase of weight (%), index when control group is 100 (broiler chicks; broiler chicks, control = 100) [%]
1 | CC(C)CC(C(=O)NC1C(=O)NC(CC(N)=O)C(=O)NC2C(=O)NC3C(=O)NC(C(=O)NC(C(=O)O)c4cc(O)cc(O)c4-c4cc3ccc4O)C(OC3CC(C)(N)C(O)C(C)O3)c3ccc(c(Cl)c3)Oc3cc2cc(c3OC2OC(CO)C(O)C(O)C2OC2CC(C)(N)C(O)C(C)O2)Oc2ccc(cc2Cl)C1O)N(C)C (stereo not shown) [PA-45052-D] | 0.39 (≈ 0.243 µM) | 0.39 (≈ 0.243 µM) | 0.39 (≈ 0.243 µM) | 0.78 (≈ 0.486 µM) | 0.2 (≈ 0.124 µM) | 0.39 (≈ 0.243 µM) | 0.78 (≈ 0.486 µM) | 0.78 (≈ 0.486 µM) | 0.2 (≈ 0.124 µM) | 0.2 (≈ 0.124 µM) | 0.2 (≈ 0.124 µM) | 0.78 (≈ 0.486 µM) |  |  |  | 
2 | thiopeptin [reference compound] |  |  |  |  |  |  |  |  |  |  |  |  | 1.62 | 431.5 ± 53.4 | 94.7 | 103.7
